# Assay results reported in patent US20110044938A1 (NYCOMED GMBH, priority 2006, published 2011).
# How the values were obtained:
# [1] = system: subclones of RKO colon adenocarcinoma cells (RKOp27 or RKOp21) arrested by Ponasterone A; experiment: Alamar Blue cell viability assay, cell cycle specific mode of action: cells arrested by ectopic p27Kip1 induced by Ponasterone A versus proliferating cells; type: cell-based; settings: Homo sapiens, RKO p27 induced (arrested) cells, 10 μM Ponasterone A, 72 hours, value = class bound given in Table A, read-out: −logIC50 RKO p27 induced (arrested) (converted)
# How it was run: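 RKOp27 or RKOp21 cells, 15000/well in DMEM/10% FCS, either arrested by p27Kip1 induced with 10 μM Ponasterone A or proliferating without inducer; compound added after 24 h, 72 h at 37° C. Alamar Blue fluorescence (544/590 nm), viability as % of untreated cells; −log IC50 reported.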
# [2] = system: RKO (RKOp27) human colon adenocarcinoma cells; experiment: Alamar Blue cell viability assay, anti-proliferative/cytotoxic activity on proliferating RKO subclones; type: cell-based; settings: RKOp27, 72 h, RKO p27 uninduced (proliferating) cells, value = class bound given in Table A, read-out: −logIC50 RKO p27 uninduced (proliferating) (converted)
# How it was run: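 RKOp27 subclones (5000 cells/well) were exposed 24 h after seeding to semi-log compound dilutions in DMEM with 10% FCS, in quadruplicate, for 72 h at 37 °C. Viability was read by Alamar Blue fluorescence (544/590 nm) relative to untreated cells (1% DMSO medium). IC50 came from concentration-effect curves and is reported as −log IC50 [mol/l].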
SMILES,IC50 [1],IC50 [2]
"Cn1cc(CNC(=O)OC2CCc3c(sc(NC(=O)/C=C/c4cccnc4)c3C#N)C2)cn1 (stereo not shown) [Example 41, (1-Methyl-1H-pyrazol-4-ylmethyl)-carbamic acid 3-cyano-2-((E)-3-pyridin-3-yl-allanoylamino)-4,5,6,7-tetrahydro-benzo[b]thiophen-6-yl ester]",≥ 100000 nM,≤ 501 nM
"Cc1cc(CNC(=O)OC2CCc3c(sc(NC(=O)/C=C/c4cccnc4)c3C#N)C2)n(C)n1 (stereo not shown) [Example 95, (2,5-Dimethyl-2H-pyrazol-3-ylmethyl)-carbamic acid 3-cyano-2-((E)-3-pyridin-3-yl-allanoylamino)-4,5,6,7-tetrahydro-benzo[b]thiophen-6-yl ester]",≥ 100000 nM,≤ 501 nM
"N#Cc1c(NC(=O)/C=C/c2cccnc2)sc2c1CCC(COC(=O)N1CCCC(O)C1)C2 (stereo not shown) [Example 87, 3-Hydroxy-piperidine-1-carboxylic acid 3-cyano-2-((E)-3-pyridin-3-yl-allanoylamino)-4,5,6,7-tetrahydro-benzo[b]thiophen-6-ylmethyl ester]",≥ 100000 nM,≤ 501 nM
"Cn1nccc1CNC(=O)OC1CCc2c(sc(NC(=O)/C=C/c3cccnc3)c2C#N)C1 (stereo not shown) [Example 40, (2-Methyl-2H-pyrazol-3-ylmethyl)-carbamic acid 3-cyano-2-((E)-3-pyridin-3-yl-allanoylamino)-4,5,6,7-tetrahydro-benzo[b]thiophen-6-yl ester]",≥ 100000 nM,≤ 501 nM
"CCOc1ccccc1CCC(=O)Nc1sc2c(c1C#N)CCC(COC(=O)OCc1nccs1)C2 (stereo not shown) [Example 203, Carbonic acid 3-cyano-2-[3-(2-ethoxy-phenyl)-propanoylamino]-4,5,6,7-tetrahydro-benzo[b]thiophen-6-ylmethyl ester thiazol-2-ylmethyl ester]",≥ 100000 nM,≤ 501 nM
"CCOc1ccccc1CCC(=O)Nc1sc2c(c1C#N)CCC(OC(=O)NCc1cccnc1)C2 (stereo not shown) [Example 165, Pyridin-3-ylmethyl-carbamic acid 3-cyano-2-[3-(2-ethoxy-phenyl)-propanoylamino]-4,5,6,7-tetrahydro-benzo[b]thiophen-6-yl ester]",≥ 100000 nM,≤ 501 nM
"COc1cccc(CCC(=O)Nc2sc3c(c2C#N)CCC(COC(=O)N2CCOCC2)C3)c1 (stereo not shown) [Example 245, Morpholine-4-carboxylic acid 3-cyano-2-[3-(3-methoxy-phenyl)-propanoylamino]-4,5,6,7-tetrahydro-benzo[b]thiophen-6-ylmethyl ester]",≥ 100000 nM,≤ 501 nM
"COc1cccc(C(C)CC(=O)Nc2sc3c(c2C#N)CCC(OC(=O)NCc2ccncc2)C3)c1 (stereo not shown) [Example 269, Pyridin-4-ylmethyl-carbamic acid 3-cyano-2-[3-(3-methoxy-phenyl)-butanoylamino]-4,5,6,7-tetrahydro-benzo[b]thiophen-6-yl ester]",≥ 100000 nM,501 to 2000 nM
"CNC(=O)OCC1CCc2c(sc(NC(=O)CCc3cccc(OC)c3)c2C#N)C1 (stereo not shown) [Example 233, Methyl-carbamic acid 3-cyano-2-[3-(3-methoxy-phenyl)-propanoylamino]-4,5,6,7-tetrahydro-benzo[b]thiophen-6-ylmethyl ester]",≥ 100000 nM,≤ 501 nM
"N#Cc1c(NC(=O)/C=C/c2cccnc2)sc2c1CCC(OC(=O)N1CC(O)C1)C2 (stereo not shown) [Example 77, 3-Hydroxy-azetidine-1-carboxylic acid 3-cyano-2-((E)-3-pyridin-3-yl-allanoylamino)-4,5,6,7-tetrahydro-benzo[b]thiophen-6-yl ester]",≥ 100000 nM,≤ 501 nM

# Now from value to compound, other results behind:
IC50 [1],SMILES,IC50 [2]
≥ 100000 nM,"N#Cc1c(NC(=O)/C=C/c2cccnc2)sc2c1CCC(OC(=O)NCc1ccno1)C2 (stereo not shown) [Example 60, Isoxazol-5-ylmethyl-carbamic acid 3-cyano-2-((E)-3-pyridin-3-yl-allanoylamino)-4,5,6,7-tetrahydro-benzo[b]thiophen-6-yl ester]",501 to 2000 nM
≥ 100000 nM,"COC(=O)OCC1CCc2c(sc(NC(=O)/C=C/c3cccnc3)c2C#N)C1 (stereo not shown) [Example 49, Carbonic acid 3-cyano-2-((E)-3-pyridin-3-yl-allanoylamino)-4,5,6,7-tetrahydro-benzo[b]thiophen-6-ylmethyl ester methyl ester]",501 to 2000 nM
≥ 100000 nM,"CCOc1ccccc1CCC(=O)Nc1sc2c(c1C#N)CCC(OC(=O)NCc1nc(C)cs1)C2 (stereo not shown) [Example 210, (4-Methyl-thiazol-2-ylmethyl)-carbamic acid 3-cyano-2-[3-(2-ethoxy-phenyl)-propanoylamino]-4,5,6,7-tetrahydro-benzo[b]thiophen-6-yl ester]",501 to 2000 nM
≥ 10000 nM,"CC(CC(=O)Nc1sc2c(c1C#N)CCC(OC(=O)NCc1ccccn1)C2)c1ccccc1 (stereo not shown) [Example 287, Pyridin-2-ylmethyl-carbamic acid 3-cyano-2-(3-phenyl-butanoylamino)-4,5,6,7-tetrahydro-benzo[b] thiophen-6-yl ester]",501 to 2000 nM
≥ 100000 nM,"COc1cccc(CCC(=O)Nc2sc3c(c2C#N)CCC(COC(=O)NCc2cc(C)no2)C3)c1 (stereo not shown) [Example 244, (3-Methyl-isoxazol-5-ylmethyl)-carbamic acid 3-cyano-2-[3-(3-methoxy-phenyl)-propanoylamino]-4,5,6,7-tetrahydro-benzo[b]thiophen-6-ylmethyl ester]",≤ 501 nM
≥ 100000 nM,"CCOc1ccccc1/C=C/C(=O)Nc1sc2c(c1C#N)CCC(OC(=O)OCCN1CCOCC1)C2 (stereo not shown) [Example 13, Carbonic acid 3-cyano-2-[(E)-3-(2-ethoxy-phenyl)-allanoylamino]-4,5,6,7-tetrahydro-benzo[b]thiophen-6-yl ester 2-morpholin-4-yl-ethyl ester]",501 to 2000 nM
≥ 100000 nM,"N#Cc1c(NC(=O)/C=C/c2cccnc2)sc2c1CCC(COC(=O)N1CC[C@@H](O)[C@@H](O)C1)C2 (stereo partly drawn) [Example 122, cis-3-, 4-Dihydroxy-piperidine-1-carboxylic acid 3-cyano-2-((E)-3-pyridin-3-yl-allanoylamino)-4,5,6,7-tetrahydro-benzo[b]thiophen-6-ylmethyl ester]",≤ 501 nM
≥ 100000 nM,"N#Cc1c(NC(=O)/C=C/c2cccnc2)sc2c1CCC(COC(=O)N1CCOCC1)C2 (stereo not shown) [Example 84, Morpholine-4-carboxylic acid-3-cyano-2-((E)-3-pyridin-3-yl-allanoylamino)-4,5,6,7-tetrahydro-benzo[b]thiophen-6-ylmethyl ester]",≤ 501 nM
≥ 100000 nM,"COC(=O)[C@@H]1CCCN1C(=O)OCC1CCc2c(sc(NC(=O)/C=C/c3cccnc3)c2C#N)C1 (stereo partly drawn) [Example 136, 2-(S)-Pyrrolidine-1,2-dicarboxylic acid 1-[3-cyano-2-((E)-3-pyridin-3-yl-allanoylamino)-4,5,6,7-tetrahydro-benzo[b]thiophen-6-ylmethyl] ester 2-methyl ester]",501 to 2000 nM
≥ 50100 nM,"COc1cccc(C(C)CC(=O)Nc2sc3c(c2C#N)CCC(COC(=O)NCc2ccccn2)C3)c1 (stereo not shown) [Example 324, Pyridin-2-ylmethyl-carbamic acid 3-cyano-2-[3-(3-methoxy-phenyl)-butanoylamino]-4,5,6,7-tetrahydro-benzo[b] thiophen-6-ylmethyl ester]",501 to 2000 nM
